The NIST ThermoML archive (doi:10.1016/j.jct.2011.08.016)

Conditions: Liquid, Vibrating tube method

CCCCCCC [heptane]
mass density [kg/m3]
Conditions | 313.18 K | 333.04 K | 353.06 K
1000 kPa | 668.09 | 650.66 | –
1010 kPa | – | – | 632.6
2000 kPa | 669.03 | 651.8 | 634.02
3000 kPa | 669.97 | 652.94 | 635.41
4000 kPa | 670.93 | 654.08 | 636.78
5000 kPa | – | 655.23 | 638.15
5010 kPa | 671.9 | – | –
6000 kPa | 672.87 | 656.38 | 639.47
7000 kPa | 673.86 | 657.54 | 640.8
8000 kPa | 674.87 | 658.65 | 642.1
9000 kPa | 675.87 | 659.81 | –
9010 kPa | – | – | 643.4
10000 kPa | 676.86 | 660.92 | 644.66
11000 kPa | 677.85 | 662.03 | 645.92
12000 kPa | 678.83 | 663.1 | 647.13
13000 kPa | 679.81 | 664.2 | 648.37
14000 kPa | 680.76 | 665.25 | 649.56
15000 kPa | 681.7 | 666.31 | 650.72
16000 kPa | 682.62 | 667.33 | 651.88
17000 kPa | 683.53 | 668.33 | 653
18000 kPa | 684.41 | – | –
18030 kPa | – | 669.34 | 654.12
19000 kPa | 685.26 | 670.26 | 655.16
20000 kPa | 686.11 | 671.2 | 656.22
21000 kPa | 686.92 | – | 657.27
22000 kPa | 687.67 | 673.01 | 658.25
23000 kPa | 688.42 | 673.86 | 659.24
23910 kPa | 689.07 | – | –
24000 kPa | – | 674.7 | 660.2
25000 kPa | 689.85 | 675.52 | 661.14
